Experimental data reported in patent US11583532B2, “Triazolopyrimidine derivatives for use as ghrelin o-acyl transferase (GOAT) inhibitors” (Boehringer Ingelheim International GmbH, priority 2018, dated 2023).
Where “and” joins values, the source holds several entries; their conditions need not be identical. Equal entries are not always repeated.

Target: human GOAT (ghrelin O-acyl transferase) (Homo sapiens (Human), UniProt Q96T53)
Experiment: Determination of hGOAT activity in HEK293 cells after incubation with test compound (acyl-ghrelin ELISA)
Format: cell-based
Details: HEK293 cells stably transfected with preproghrelin and human GOAT cDNA; octanoate-BSA 100 μM; 5 hours incubation; acyl-ghrelin in medium by ELISA; 8 compound concentrations
Description: Determination of hGOAT Activity in HEK293 Cells after incubation with test compound
HEK293 cells stably transfected with two expression vectors, one coding for preproghrelin cDNA and a second for the expression of human GOATcDNA are used as a cellular model. After feeding the cells with octanoic acid for 5 hours, acyl-ghrelin is measured in cell culture medium by an ELISA procedure.
Cellline: Hek293 hGOAT/PPGhrl Clone #1B8Sodium octanoate, Sigma, Cat.-No. C5038
BSA: Sigma, Cat.-No. A8806
BD Poly-D-Lysin 384-well Plates, black-clear polystyrene BD Bioscience Cat.-No. […] ELISA human acylated Ghrelin Kit purchased from Bertin Pharman (detailed composition of buffers e.g. wash-puffer, ELISA buffer not known)
All further reagents used were of highest analytical grade available.
Cells are plated with a density of 5000 cells/well in 384-well poly-D-lysin plates and incubated for 1 day at 37° C., 5% CO2 in DMEM medium, 10% FCS, 1×NEAA, Puromycin (0.5 μg/ml) and G418 (1 mg/ml). Then the medium is changed to a identical medium without FCS and containing Octanoate-BSA (final concentration 100 μM each) and compound in DMSO (final DMSO concentration 0.3%). After incubation for 5 hours acylghrelin in the medium is measured by ELISA.
The medium sample is diluted 1:25 in Elisa buffer, a 25 μl aliquot is transferred to a 384-well ELISA plate previously washed 4 times with 100 μL wash buffer, and 25 μl tracer-solution is added. After incubation overnight (˜20 h) at 4° C. temperature the plate is washed 4 times with 100 μl wash-buffer per well. Finally 50 μl Ellman's reagent is added to each well and the plate is incubated in the dark for 20 minutes. The absorbance is measured at 405 nm in an Envision multilabel reader and the amount of acylated ghrelin is calculated according to a acylated ghrelin standard curve provided in the same plate.
The analysis of the data is performed by calculation of the percentage of acyl-ghrelin produced in the presence of test compound compared to the amount of acyl-ghrelin produced in the vehicle control samples. An inhibitor of the GOAT enzyme will give values between 100% CTL (no inhibition) and 0% CTL (complete inhibition).
IC50 values are calculated with Assay Explorer or other suited software based on curve fitting of results of 8 different compound concentrations.

human GOAT (ghrelin O-acyl transferase), sequence (Q96T53 whole entry): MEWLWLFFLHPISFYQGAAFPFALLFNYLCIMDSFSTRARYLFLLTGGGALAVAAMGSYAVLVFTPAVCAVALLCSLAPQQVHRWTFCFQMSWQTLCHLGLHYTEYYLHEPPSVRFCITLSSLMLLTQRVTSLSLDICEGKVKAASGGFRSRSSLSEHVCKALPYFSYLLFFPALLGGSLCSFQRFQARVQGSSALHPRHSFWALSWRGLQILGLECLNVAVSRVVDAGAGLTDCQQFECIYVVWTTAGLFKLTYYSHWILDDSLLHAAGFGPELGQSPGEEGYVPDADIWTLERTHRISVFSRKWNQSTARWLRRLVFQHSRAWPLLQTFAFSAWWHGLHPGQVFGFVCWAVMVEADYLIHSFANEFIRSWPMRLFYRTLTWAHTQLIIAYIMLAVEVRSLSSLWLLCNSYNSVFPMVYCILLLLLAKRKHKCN

IC50 | SMILES
0.36 nM | Cc1nc2ncnn2c(N)c1Cc1ccc(Br)c(N2CC(F)(F)C2)n1 [Example 23.3]
0.95 nM | Cc1nc2ncnn2c(N)c1Cc1ccc(OC(F)(F)F)c(N=S(C)(C)=O)c1 [Example 11.1, {[5-({7-Amino-5-methyl-[1,2,4]triazolo[1,5-a]pyrimidin-6-yl}methyl)-2-(trifluoromethoxy)phenyl]imino}dimethyl-λ6-sulfanone]
0.3 nM | Cc1nc2ncnn2c(N)c1Cc1ccc(Br)c(OCC(F)F)n1 [Example 8.4]
9.3 nM | Cc1nc2ncnn2c(N)c1Cc1ccc(OC(F)(F)F)c(C(N)=O)c1 [Example 15.4]
0.83 nM | COc1cc(C(F)(F)F)ccc1Cc1c(Cl)nc2ncnn2c1N [Example 25.1, 5-Chloro-6-{[2-methoxy-4-(trifluoromethyl)phenyl]methyl}-[1,2,4]triazolo[1,5-a]pyrimidin-7-amine]
3.4 nM | Cc1nc2ncnn2c(N)c1Cc1ccc(C(F)(F)F)cc1 [Example 6.3]
0.83 nM | COC(=O)c1cc(Cc2c(C)nc3ncnn3c2N)ccc1OC(F)(F)F [Example 15.1, Methyl 5-({7-amino-5-methyl-[1,2,4]triazolo[1,5-a]pyrimidin-6-yl}methyl)-2-(trifluoromethoxy)benzoate]
0.32 nM and 0.76 nM | Cc1nc2ncnn2c(N)c1Cc1ccc(C(F)(F)F)c(N2CC(F)(F)C2)n1 [Example 3.3]
8.3 nM | Cc1nc2ncnn2c(N)c1Cc1ccc(C#N)c(OCC2(C(F)(F)F)CC2)n1 [Example 9.2]
0.29 nM | Cc1nc2ncnn2c(N)c1Cc1ccc(Br)c(N2CCC(F)(F)CC2)n1 [Example 23.2]
5 nM | Cc1nc2ncnn2c(N)c1Cc1ccc(C(F)(F)F)cc1Br [Example 17.2]
2.4 nM | CCOc1cc(C(F)(F)F)ccc1Cc1c(C)nc2ncnn2c1N [Example 4.5]
2 nM | Cc1nc2ncnn2c(N)c1Cc1ccc(OC(F)F)c(Br)c1 [Example 1.2]
2.9 nM | CCOc1nc(C(F)(F)F)ccc1Cc1c(C)nc2ncnn2c1N [Example 4.7]
0.23 nM | Cc1nc2ncnn2c(N)c1Cc1ccc(Br)c(NCC(F)(F)F)n1 [Example 8.2]
7.7 nM | Cc1nc2ncnn2c(N)c1Cc1ccc(Br)c(N2CC(C(F)(F)F)C2)n1 [Example 23.7]
2.3 nM | Cc1nc2ncnn2c(N)c1Cc1ccc(C#N)c(NC2CC(F)(F)C2)n1 [Example 7.3]
3.7 nM | Cc1nc2ncnn2c(N)c1Cc1ccc(C#N)c(OCCF)n1 [Example 9.4]
4.2 nM | Cc1nc2ncnn2c(N)c1Cc1ccc(S(=O)(=O)C(F)(F)F)cc1 [Example 18.1, 5-Methyl-6-[(4-trifluoromethanesulfonylphenyl)methyl]-[1,2,4]triazolo[1,5-a]pyrimidin-7-amine]
3.1 nM | Cc1nc2ncnn2c(N)c1Cc1ccc(-c2c[nH]nc2C(F)(F)F)c(N)n1 [Example 16.1, 6-({7-Amino-5-methyl-[1,2,4]triazolo[1,5-a]pyrimidin-6-yl}methyl)-3-[3-(trifluoromethyl)-1H-pyrazol-4-yl]pyridin-2-amine]
1 nM | COc1cc(Cc2c(Cl)nc3ncnn3c2N)ccc1C(F)(F)F [Example 25.2]
0.31 nM | Cc1nc2ncnn2c(N)c1Cc1ccc(Br)c(C2(C#N)CC(F)(F)C2)n1 [Example 14.1, 1-[6-({7-Amino-5-methyl-[1,2,4]triazolo[1,5-a]pyrimidin-6-yl}methyl)-3-bromopyridin-2-yl]-3,3-difluorocyclobutane-1-carbonitrile]
2.8 nM | Cc1nc2ncnn2c(N)c1Cc1ccc(Br)c(-n2ccc(C(F)(F)F)n2)n1 [Example 10.2]
0.13 nM | Cc1nc2ncnn2c(N)c1Cc1ccc(Br)c(OC(F)F)n1 [Example 5.1, 6-{[5-Bromo-6-(difluoromethoxy)pyridin-2-yl]methyl}-5-methyl-[1,2,4]triazolo[1,5-a]pyrimidin-7-amine]
6.2 nM | Cc1nc2ncnn2c(N)c1Cc1ccc(C#N)c(NCC2CC2(F)F)n1 (stereo not shown) [Example 7.10]
1.9 nM | Cc1nc2ncnn2c(N)c1Cc1ccc(OC(F)F)cc1 [Example 6.4]

IC50 | SMILES
4.6 nM | Cc1nc2ncnn2c(N)c1Cc1ccc(C(F)(F)F)c(C#N)n1 [Example 24.1, 6-({7-Amino-5-methyl-[1,2,4]triazolo[1,5-a]pyrimidin-6-yl}methyl)-3-(trifluoromethyl)pyridine-2-carbonitrile]
3.9 nM | Cc1nc2ncnn2c(N)c1Cc1ccc(C#N)c(OCC(F)(F)F)n1 [Example 9.5]
1.1 nM | Cc1nc2ncnn2c(N)c1Cc1ccc(C(F)(F)F)c(Br)c1 [Example 4.3]
0.3 nM | Cc1nc2ncnn2c(N)c1Cc1ccc(OC(F)F)c(Br)n1 [Example 4.1, 6-{[6-Bromo-5-(difluoromethoxy)pyridin-2-yl]methyl}-5-methyl-[1,2,4]triazolo[1,5-a]pyrimidin-7-amine]
5.7 nM | Nc1c(Cc2ccc(C(F)(F)F)cc2)c(Cl)nc2ncnn12 [Example 25.3]
0.68 nM | Cc1nc2ncnn2c(N)c1Cc1ccc(OC(F)(F)F)c(N=S2(=O)CCC2)c1 [Example 11.2]
0.92 nM | COc1cc(Cc2c(C)nc3ncnn3c2N)ccc1C(F)(F)F [Example 7.5]
0.37 nM | Cc1nc2ncnn2c(N)c1Cc1ccc(C#N)c(NCC(F)F)n1 [Example 7.1, 6-({7-amino-5-methyl-[1,2,4]triazolo[1,5-a]pyrimidin-6-yl}methyl)-2-[(2,2-difluoroethyl)amino]pyridine-3-carbonitrile]
0.95 nM | Nc1c(Cc2ccc(C(F)(F)F)cc2)c(C(F)F)nc2ncnn12 [Example 17.1, 5-(Difluoromethyl)-6-{[4-(trifluoromethyl)phenyl]methyl}-[1,2,4]triazolo[1,5-a]pyrimidin-7-amine]
3.5 nM and 5.4 nM | Cc1nc2ncnn2c(N)c1Cc1ccc(OC(F)(F)F)c(C(=O)N(C)C)c1 [Example 15.2, 5-({7-Amino-5-methyl-[1,2,4]triazolo[1,5-a]pyrimidin-6-yl}methyl)-N,N-dimethyl-2-(trifluoromethoxy)benzamide]
9.8 nM | Cc1nc2ncnn2c(N)c1Cc1ccc(C(F)F)cc1 [Example 4.9]
1.7 nM | Cc1nc2ncnn2c(N)c1Cc1cccc(-c2cn(C)nc2C(F)(F)F)n1 [Example 13.1, 5-Methyl-6-({6-[1-methyl-3-(trifluoromethyl)-1H-pyrazol-4-yl]pyridin-2-yl}methyl)-[1,2,4]triazolo[1,5-a]pyrimidin-7-amine]
8.6 nM | Cc1nc2ncnn2c(N)c1Cc1ccc(Br)c(-n2cc(C(F)(F)F)cn2)n1 [Example 10.3]
1.1 nM | Cc1nc2ncnn2c(N)c1Cc1ccc(OC(F)(F)F)c(Br)c1 [Example 4.4, 6-{[3-bromo-4-(trifluoromethoxy)phenyl]methyl}-5-methyl-[1,2,4]triazolo[1,5-a]pyrimidin-7-amine]
1.9 nM | COc1nc(C(F)(F)F)ccc1Cc1c(C)nc2ncnn2c1N [Example 4.2]
4.4 nM | Cc1nc2ncnn2c(N)c1Cc1ccc(OC(F)F)c(C#N)n1 [Example 12.1, 6-({7-Amino-5-methyl-[1,2,4]triazolo[1,5-a]pyrimidin-6-yl}methyl)-3-(difluoromethoxy)pyridine-2-carbonitrile]
0.7 nM | Cc1nc2ncnn2c(N)c1Cc1ccc(Br)c(N2CCC(C(F)(F)F)C2)n1 (stereo not shown) [Example 23.4]
4.9 nM | Cc1nc2ncnn2c(N)c1Cc1ccc([S+]([O-])C(F)(F)F)cc1 (stereo not shown) [Example 19.1, 5-M ethyl-6-[(4-trifluoromethanesulfinylphenyl)methyl]-[1,2,4]triazolo[1,5-a]pyrimidin-7-amine]
6.5 nM | Cc1nc2ncnn2c(N)c1Cc1ccc(C(F)(F)F)c(N)n1 [Example 3.4]
0.69 nM | Cc1nc2ncnn2c(N)c1Cc1ccc(C#N)c(NCC(F)(F)F)n1 [Example 7.6]
0.57 nM | COC(=O)c1cc(Cc2c(C)nc3ncnn3c2N)ccc1C(F)(F)F [Example 7.2]
0.93 nM | Cc1nc2ncnn2c(N)c1Cc1ccc(C#N)c(NCCC(F)F)n1 [Example 7.7]
1.3 nM | Cc1nc2ncnn2c(N)c1Cc1ccc(C#N)c(NCCCF)n1 [Example 7.9]
0.65 nM | Cc1nc2ncnn2c(N)c1Cc1ccc(C(F)(F)F)c(N2CCOCC2)n1 [Example 3.1, 5-Methyl-6-{[6-(morpholin-4-yl)-5-(trifluoromethyl)pyridin-2-yl]methyl}-[1,2,4]triazolo[1,5-a]pyrimidin-7-amine]
8.6 nM | Cc1nc2ncnn2c(N)c1Cc1ccc(OC(F)(F)F)c(C(=O)NC(C)C)c1 [Example 15.3]
0.86 nM | Cc1nc2ncnn2c(N)c1Cc1ccc(Br)c(N2Cc3ccc(F)cc3C2)n1 [Example 23.6]
